Measured values from paper PMC8130605 (RSC Medicinal Chemistry, 2021).

Columns and labels:
[1] = system: THP1 cells; experiment: THP1 host cell cytotoxicity; assay type: cell-based
[2] = Mouse pharmacokinetic study; assay type: in vivo; conditions: after oral dosing 50 mg kg^−1

SMILES	background cell cytotoxicity (in words) [1]	compound in the plasma after 24 hours [2]
CC(C)(C)Nc1c(-c2ccccn2)nc2c(OCc3ccccc3)cccn12 [Compound 2]	no background cell cytotoxicity	–
Cc1ccc2nc(-c3ccc(N(C)C)cc3)c(NC3CCCCC3)n2c1 [Compound 8]	no background cell cytotoxicity	–
COc1ccn2c(Nc3cc(F)cc(F)c3)c(-c3ccccn3)nc2c1 [Compound 23]	–	no compound observed
